{"source": "paper PMC10649961", "about": "“Novel Mitochondria-Targeted Amphiphilic Aminophosphonium Salts and Lipids Nanoparticles: Synthesis, Antitumor Activity and Toxicity” (Nanomaterials, 2023)", "key": {"[1]": {"test_system": "Pseudomonas aeruginosa ATCC 9027", "experiment": "Antimicrobial activity, serial microdilutions, Pa", "format": "cell-based", "parameters": "key to Minimum Inhibitory Concentration (MIC) / Minimum bactericidal and fungicidal concentrations (MBC, MFC): – means non-active", "outline": "(§1)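 Compounds were serially diluted in broth: Mueller-Hinton for the bacterial strains, Sabouraud for the yeast. Each determination was done in triplicate.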"}, "[2]": {"test_system": "PC3"}, "[3]": {"test_system": "HuTu 80", "experiment": "cells", "conditions": "Homo sapiens, HuTu80, 48 h, read-out: Cytotoxic Effects (IC50)"}, "[4]": {"test_system": "M-HeLa", "experiment": "cells", "conditions": "Homo sapiens, 48 h, read-out: Cytotoxic Effects (IC50)"}, "[5]": {"test_system": "DU-145"}, "[6]": {"test_system": "SK-OV-3", "experiment": "cells", "conditions": "Homo sapiens, SK-OV-3, 48 h, read-out: Cytotoxic Effects (IC50)"}, "[7]": {"test_system": "T98G"}, "[8]": {"test_system": "DU-145", "experiment": "cells", "conditions": "Homo sapiens, DU-145, 48 h, read-out: Cytotoxic Effects (IC50), DU-145, MTT assay, 48 h"}, "[9]": {"test_system": "Staphylococcus aureus ATCC 6538 P FDA 209P", "experiment": "Antimicrobial activity, serial microdilutions, Sa", "format": "cell-based", "conditions": "Staphylococcus aureus; for MIC: read-out: Minimum Inhibitory Concentration (MIC); for MBC: read-out: Minimum bactericidal and fungicidal concentrations (MBC, MFC)", "outline": "as §1"}, "[10]": {"test_system": "PANC-1"}, "[11]": {"test_system": "HuTu 80"}, "[12]": {"test_system": "MCF-7", "experiment": "cells", "conditions": "Homo sapiens, MCF7, 48 h, read-out: Cytotoxic Effects (IC50)"}, "[13]": {"test_system": "MRSA-1", "experiment": "Antimicrobial activity, serial microdilutions, MRSA-1", "format": "cell-based, S. aureus", "conditions": "Staphylococcus aureus; for MIC: read-out: Minimum Inhibitory Concentration (MIC); for MBC: read-out: Minimum bactericidal and fungicidal concentrations (MBC, MFC)", "outline": "as §1"}, "[14]": {"test_system": "MRSA-2", "experiment": "Antimicrobial activity, serial microdilutions, MRSA-2", "format": "cell-based, S. aureus", "conditions": "Staphylococcus aureus; for MIC: read-out: Minimum Inhibitory Concentration (MIC); for MBC: read-out: Minimum bactericidal and fungicidal concentrations (MBC, MFC)", "outline": "as §1"}, "[15]": {"test_system": "Hep G2", "experiment": "cells", "conditions": "Homo sapiens, HepG2, 48 h, read-out: Cytotoxic Effects (IC50)"}, "[16]": {"test_system": "Candida albicans ATCC 10231", "experiment": "Antimicrobial activity, serial microdilutions, Ca", "format": "cell-based", "parameters": "key to Minimum Inhibitory Concentration (MIC) / Minimum bactericidal and fungicidal concentrations (MBC, MFC): – means non-active", "outline": "as §1"}, "[17]": {"test_system": "A549"}, "[18]": {"test_system": "MCF-7"}, "[19]": {"test_system": "SK-OV-3"}, "[20]": {"test_system": "T98G", "experiment": "cells", "conditions": "Homo sapiens, 48 h, read-out: Cytotoxic Effects (IC50)"}, "[21]": {"test_system": "Escherichia coli ATCC 25922", "experiment": "Antimicrobial activity, serial microdilutions, Ec", "format": "cell-based", "parameters": "key to Minimum Inhibitory Concentration (MIC) / Minimum bactericidal and fungicidal concentrations (MBC, MFC): – means non-active", "outline": "as §1"}, "[22]": {"test_system": "A549", "experiment": "cells", "conditions": "Homo sapiens, A549, 48 h, read-out: Cytotoxic Effects (IC50)"}, "[23]": {"test_system": "PANC-1", "experiment": "cells", "conditions": "Homo sapiens, PANC-1, 48 h, read-out: Cytotoxic Effects (IC50)"}, "[24]": {"test_system": "Enterococcus faecalis ATCC 29212", "experiment": "Antimicrobial activity, serial microdilutions, Ef", "format": "cell-based", "parameters": "key to Minimum Inhibitory Concentration (MIC) / Minimum bactericidal and fungicidal concentrations (MBC, MFC): – means non-active", "conditions": "for MIC: ATCC29212, read-out: Minimum Inhibitory Concentration (MIC)", "outline": "as §1"}, "[25]": {"test_system": "Hep G2"}, "[26]": {"test_system": "M-HeLa"}, "[27]": {"test_system": "Bacillus cereus ATCC 10702 NCTC 8035", "experiment": "Antimicrobial activity, serial microdilutions, Bc", "format": "cell-based", "parameters": "key to Minimum bactericidal and fungicidal concentrations (MBC, MFC): – means non-active", "conditions": "for MIC: read-out: Minimum Inhibitory Concentration (MIC)", "outline": "as §1"}, "[28]": {"conditions": "calculated relative to the cell line WI38 (a)"}, "[29]": {"conditions": "reference normal cell line not marked at the place (ns cells)"}, "[30]": {"conditions": "calculated relative to the cell line Chang liver (b)"}}, "note": "Where two headings read alike, the source gives them in different places."}
{"smiles": "CCCCCCCC[P+](c1ccccc1)(c1ccccc1)N(CC)CC", "note": "[6b, (Diethylamino)(octyl)diphenylphosphonium iodide]", "values": [{"measurement": "Minimum Inhibitory Concentration (MIC)", "setting": "[1]", "result": "–"}, {"measurement": "Minimum bactericidal and fungicidal concentrations (MBC, MFC)", "setting": "[1]", "result": "–"}, {"measurement": "selectivity index (SI)", "setting": "[2]; [28]", "result": 19}, {"measurement": "IC50", "setting": "[3]", "result": "200 ± 10", "unit": "nM"}, {"measurement": "IC50", "setting": "[4]", "result": "950 ± 80", "unit": "nM"}, {"measurement": "selectivity index (SI)", "setting": "[5]; [28]", "result": 20}, {"measurement": "IC50", "setting": "[6]", "result": "17.6 ± 1.4", "unit": "µM"}, {"measurement": "selectivity index (SI)", "setting": "[7]; [28]", "result": 5.0}, {"measurement": "IC50", "setting": "[8]", "result": "800 ± 70", "unit": "nM"}, {"measurement": "MIC", "setting": "[9]", "result": "7.8 ± 0.6", "unit": "µM"}, {"measurement": "MBC", "setting": "[9]", "result": "125 ± 11", "unit": "µM"}, {"measurement": "selectivity index (SI)", "setting": "[10]; [28]", "result": 12}, {"measurement": "selectivity index (SI)", "setting": "[11]; [28]", "result": 81}, {"measurement": "IC50", "setting": "[12]", "result": "9.5 ± 0.8", "unit": "µM"}, {"measurement": "MIC", "setting": "[13]", "result": "7.8 ± 0.6", "unit": "µM"}, {"measurement": "MBC", "setting": "[13]", "result": "31.3 ± 2.6", "unit": "µM"}, {"measurement": "MIC", "setting": "[14]", "result": "7.8 ± 0.6", "unit": "µM"}, {"measurement": "MBC", "setting": "[14]", "result": "31.3 ± 2.5", "unit": "µM"}, {"measurement": "IC50", "setting": "[15]", "result": "11.6 ± 0.9", "unit": "µM"}, {"measurement": "Minimum Inhibitory Concentration (MIC)", "setting": "[16]; Ca", "result": "–"}, {"measurement": "Minimum bactericidal and fungicidal concentrations (MBC, MFC)", "setting": "[16]; Ca", "result": "–"}, {"measurement": "selectivity index (SI)", "setting": "[17]; [28]", "result": 1.2}, {"measurement": "selectivity index (SI)", "setting": "[18]; [28]", "result": 1.7}, {"measurement": "selectivity index (SI)", "setting": "[19]; [29]", "result": "ns (ns—no selectivity)"}, {"measurement": "IC50", "setting": "[20]", "result": "3400 ± 200", "unit": "nM"}, {"measurement": "Minimum Inhibitory Concentration (MIC)", "setting": "[21]", "result": "–"}, {"measurement": "Minimum bactericidal and fungicidal concentrations (MBC, MFC)", "setting": "[21]", "result": "–"}, {"measurement": "IC50", "setting": "[22]", "result": "13 ± 1.1", "unit": "µM"}, {"measurement": "IC50", "setting": "[23]", "result": "1300 ± 100", "unit": "nM"}, {"measurement": "Minimum bactericidal and fungicidal concentrations (MBC, MFC)", "setting": "[24]", "result": "–"}, {"measurement": "MIC", "setting": "[24]; Enterococcus faecalis", "result": "62.5 ± 5.5", "unit": "µM"}, {"measurement": "selectivity index (SI)", "setting": "[25]; [28]", "result": 1.4}, {"measurement": "selectivity index (SI)", "setting": "[26]; [28]", "result": 17}, {"measurement": "MIC", "setting": "[27]; Bacillus cereus, Bc", "result": "3.9 ± 0.4", "unit": "µM"}, {"measurement": "Minimum bactericidal and fungicidal concentrations (MBC, MFC)", "setting": "[27]; Bc", "result": "–"}]}
{"smiles": "CCCCCCCCCC[P+](N(CC)CC)(N(CC)CC)N(CC)CC", "note": "[4d, Decyltris(diethylamino)phosphonium iodide]", "values": [{"measurement": "MIC", "setting": "[1]; Pseudomonas aeruginosa, ATCC9027, read-out: Minimum Inhibitory Concentration (MIC)", "result": "500 ± 47", "unit": "µM"}, {"measurement": "MBC", "setting": "[1]; Pseudomonas aeruginosa, ATCC9027, read-out: Minimum bactericidal and fungicidal concentrations (MBC, MFC)", "result": "500 ± 48", "unit": "µM"}, {"measurement": "selectivity index (SI)", "setting": "[2]; [30]", "result": 1.6}, {"measurement": "IC50", "setting": "[3]", "result": "2800 ± 200", "unit": "nM"}, {"measurement": "IC50", "setting": "[4]", "result": "1700 ± 100", "unit": "nM"}, {"measurement": "selectivity index (SI)", "setting": "[5]; [30]", "result": 10}, {"measurement": "IC50", "setting": "[6]", "result": "10 ± 0.9", "unit": "µM"}, {"measurement": "selectivity index (SI)", "setting": "[7]; [30]", "result": 6.7}, {"measurement": "IC50", "setting": "[8]", "result": "1200 ± 100", "unit": "nM"}, {"measurement": "MIC", "setting": "[9]", "result": "1.9 ± 0.1", "unit": "µM"}, {"measurement": "MBC", "setting": "[9]", "result": "31.3 ± 2.5", "unit": "µM"}, {"measurement": "selectivity index (SI)", "setting": "[10]; [30]", "result": 7.5}, {"measurement": "selectivity index (SI)", "setting": "[11]; [30]", "result": 4.3}, {"measurement": "IC50", "setting": "[12]", "result": "2.1 ± 0.2", "unit": "µM"}, {"measurement": "MIC", "setting": "[13]", "result": "0.9 ± 0.07", "unit": "µM"}, {"measurement": "MBC", "setting": "[13]", "result": "62.5 ± 5.4", "unit": "µM"}, {"measurement": "MIC", "setting": "[14]", "result": "1.9 ± 0.1", "unit": "µM"}, {"measurement": "MBC", "setting": "[14]", "result": "250 ± 18", "unit": "µM"}, {"measurement": "IC50", "setting": "[15]", "result": "2.3 ± 0.1", "unit": "µM"}, {"measurement": "MIC", "setting": "[16]; Candida albicans, ATCC10231, read-out: Minimum Inhibitory Concentration (MIC)", "result": "125 ± 11", "unit": "µM"}, {"measurement": "MBC", "setting": "[16]; Candida albicans, ATCC10231, read-out: Minimum bactericidal and fungicidal concentrations (MBC, MFC)", "result": "250 ± 18", "unit": "µM"}, {"measurement": "selectivity index (SI)", "setting": "[17]; [29]", "result": "ns (ns—no selectivity)"}, {"measurement": "selectivity index (SI)", "setting": "[18]; [30]", "result": 5.7}, {"measurement": "selectivity index (SI)", "setting": "[19]; [30]", "result": 1.2}, {"measurement": "IC50", "setting": "[20]", "result": "1800 ± 200", "unit": "nM"}, {"measurement": "MIC", "setting": "[21]; Escherichia coli, ATCC25922, read-out: Minimum Inhibitory Concentration (MIC)", "result": "125 ± 9", "unit": "µM"}, {"measurement": "MBC", "setting": "[21]; Escherichia coli, ATCC25922, read-out: Minimum bactericidal and fungicidal concentrations (MBC, MFC)", "result": "250 ± 19", "unit": "µM"}, {"measurement": "IC50", "setting": "[22]", "result": "18.4 ± 1.3", "unit": "µM"}, {"measurement": "IC50", "setting": "[23]", "result": "1600 ± 100", "unit": "nM"}, {"measurement": "MIC", "setting": "[24]; Enterococcus faecalis", "result": "15.6 ± 1.3", "unit": "µM"}, {"measurement": "MBC", "setting": "[24]; Enterococcus faecalis, ATCC29212, read-out: Minimum bactericidal and fungicidal concentrations (MBC, MFC)", "result": "> 500", "unit": "µM"}, {"measurement": "selectivity index (SI)", "setting": "[25]; [30]", "result": 5.2}, {"measurement": "selectivity index (SI)", "setting": "[26]; [30]", "result": 7.1}, {"measurement": "MIC", "setting": "[27]; Bacillus cereus, Bc", "result": "0.9 ± 0.07", "unit": "µM"}, {"measurement": "MBC", "setting": "[27]; Bacillus cereus, read-out: Minimum bactericidal and fungicidal concentrations (MBC, MFC)", "result": "250 ± 22", "unit": "µM"}]}
